Data as given in ChEMBL document CHEMBL1201862, “PubChem BioAssay data set” (2004).
Calls of active or inactive are those of the source.

Key:
[1] = ADAM10 inhibitors, peptide cleavage, dose response, biochemical, QFRET (AID 743254);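 further: ADAM10 enzyme with the DM2 quenched FRET peptide as substrate; EDANS fluorescence gain as the protease cuts the substrate; inhibitor potency against ADAM10 proteolytic activity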
[2] = Luminescence Cell-Based Dose Retest to Confirm Inhibitors of Cancer Stem Cells. [Related pubchem assays (depositor defined):AID2717, AID2721]; assay type: functional; conditions: Homo sapiens
[3] = biological target: T1, Disintegrin and metalloproteinase domain-containing protein 17 (Homo sapiens, UniProt P78536); experiment: exosite inhibitors of ADAM17, dose response, biochemical (AID 743260)
T1 sequence (P78536 whole entry, the tested form may be a part): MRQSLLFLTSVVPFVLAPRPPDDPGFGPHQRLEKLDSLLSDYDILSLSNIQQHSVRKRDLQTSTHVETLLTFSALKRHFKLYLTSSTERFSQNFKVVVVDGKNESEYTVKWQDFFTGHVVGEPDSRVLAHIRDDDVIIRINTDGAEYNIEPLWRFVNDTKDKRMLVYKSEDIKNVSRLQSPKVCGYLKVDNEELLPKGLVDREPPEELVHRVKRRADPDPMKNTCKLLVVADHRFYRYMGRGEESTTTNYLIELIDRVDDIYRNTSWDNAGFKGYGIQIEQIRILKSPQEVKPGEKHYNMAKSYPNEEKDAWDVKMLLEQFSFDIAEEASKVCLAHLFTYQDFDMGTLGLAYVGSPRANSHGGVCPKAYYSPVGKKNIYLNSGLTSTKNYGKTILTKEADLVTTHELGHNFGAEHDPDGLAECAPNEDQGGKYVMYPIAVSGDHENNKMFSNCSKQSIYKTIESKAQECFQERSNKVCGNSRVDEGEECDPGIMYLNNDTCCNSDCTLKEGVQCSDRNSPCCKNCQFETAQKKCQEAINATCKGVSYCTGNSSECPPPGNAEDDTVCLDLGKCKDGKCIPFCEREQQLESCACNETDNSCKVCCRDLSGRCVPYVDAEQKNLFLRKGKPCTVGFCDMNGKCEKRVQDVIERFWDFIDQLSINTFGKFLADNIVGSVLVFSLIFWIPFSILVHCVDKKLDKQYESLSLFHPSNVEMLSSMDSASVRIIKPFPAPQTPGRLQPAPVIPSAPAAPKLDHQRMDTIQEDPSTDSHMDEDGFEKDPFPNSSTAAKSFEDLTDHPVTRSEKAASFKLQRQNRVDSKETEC

[4] = ADAM10 protease inhibitors, dose response, selectivity assay for ADAM17 exosite inhibitor project, biochemical, FRET peptide substrate, recombinant human ADAM10 (AID 743259);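 further: ADAM10 enzyme cleaving a FRET peptide substrate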
[5] = biological target: T2, Beta-lactamase (Pseudomonas aeruginosa, UniProt Q79MP6); experiment: IMP-1 metallo-beta-lactamase inhibitors, dose response, selectivity assay for VIM-2 inhibitor project, biochemical, epi-absorbance (AID 1920)
T2 sequence (Q79MP6 whole entry): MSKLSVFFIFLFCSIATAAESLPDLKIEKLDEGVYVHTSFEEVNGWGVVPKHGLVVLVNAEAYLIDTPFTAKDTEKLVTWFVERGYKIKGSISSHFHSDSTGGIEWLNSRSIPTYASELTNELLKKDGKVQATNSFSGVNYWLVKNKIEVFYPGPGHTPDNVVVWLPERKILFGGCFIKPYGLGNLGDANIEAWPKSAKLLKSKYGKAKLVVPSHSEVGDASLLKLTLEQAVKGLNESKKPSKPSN

[6] = biological target: Beta-lactamase (Salmonella choleraesuis (strain SC-B67), UniProt Q5J463); experiment: Epi-absorbance-based counterscreen for selective VIM-2 inhibitors: dose response biochemical high throughput screening assay to identify inhibitors of TEM-1 serine-beta-lactamase.
Sequence of Beta-lactamase (Salmonella choleraesuis (strain SC-B67), UniProt Q5J463) (Q5J463 whole entry): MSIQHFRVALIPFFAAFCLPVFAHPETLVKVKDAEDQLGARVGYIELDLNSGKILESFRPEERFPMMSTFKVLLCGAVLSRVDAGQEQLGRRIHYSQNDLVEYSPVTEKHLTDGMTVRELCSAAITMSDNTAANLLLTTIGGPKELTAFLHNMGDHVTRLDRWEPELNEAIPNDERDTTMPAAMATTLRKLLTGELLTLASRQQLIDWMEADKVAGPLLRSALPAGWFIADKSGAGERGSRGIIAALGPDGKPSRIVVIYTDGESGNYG

[7] = biological target: T2, Beta-lactamase; experiment: […] counterscreen for selective VIM-2 inhibitors: dose response biochemical high throughput screening assay to identify inhibitors of IMP-1 metallo-beta-lactamase.
[8] = biological target: T1, Disintegrin and metalloproteinase domain-containing protein 17; experiment: ADAM17 protease inhibitors, dose response, counter-screen for ADAM10 exosite inhibitor project, biochemical, quenched FRET substrate (AID 743253)
[9] = biological target: T3, Probable nicotinate-nucleotide adenylyltransferase (Staphylococcus aureus (strain N315), UniProt P65502); assay type: functional, Staphylococcus aureus subsp. aureus N315; conditions: read-out: IC50_Mean;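 on IC50 Mean: confirmatory dose-response retesting of NadD inhibitor hits first found in an ultra-high-throughput screen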
T3 sequence (P65502 whole entry): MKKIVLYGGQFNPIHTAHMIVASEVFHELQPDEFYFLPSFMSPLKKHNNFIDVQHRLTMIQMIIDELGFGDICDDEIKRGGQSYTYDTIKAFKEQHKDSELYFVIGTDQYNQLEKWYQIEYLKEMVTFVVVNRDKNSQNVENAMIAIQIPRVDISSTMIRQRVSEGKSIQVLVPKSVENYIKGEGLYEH

[10] = test system: Streptococcus; experiment: Group A Streptococcus viability loss, dose response, counter-screen for streptokinase expression inhibitor project, luminescence, BacTiterGlo (AID 1915); assay type: functional, organism-based;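 further: potency for reduction of bacterial viability or growth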
[11] = biological target: T3, Probable nicotinate-nucleotide adenylyltransferase; assay type: functional, Staphylococcus aureus subsp. aureus N315
[12] = test system: Streptococcus sp. 'group A'; experiment: growth inhibition of control SK(-) GAS strain, dose response, counter-screen for streptokinase expression inhibitor project, luminescence, kanamycin, BacTiterGlo, confirmation (AID 1900); assay type: functional, organism-based
[13] = biological target: Heat shock protein HSP 90-alpha (Homo sapiens, UniProt P07900); assay type: functional, organism-based
[14] = test system: Vero; experiment: Vero cell cytotoxicity, cytotoxicity control for flavivirus capping enzyme inhibitors (AID 588742); assay type: functional; conditions: Chlorocebus sabaeus
[15] = biological target: T4, COUP transcription factor 2 (Homo sapiens, UniProt P24468); experiment: Luminescence-based cell-based high throughput dose response assay to identify inhibitors of COUP-TFII (NR2F2).; assay type: functional;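 further: HEK293 cells transiently cotransfected with COUP-TFII expression vector and reporter; luciferase reporter luminescence driven by COUP-TFII from the pX2-168 reporter plasmid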
T4 sequence (P24468 whole entry): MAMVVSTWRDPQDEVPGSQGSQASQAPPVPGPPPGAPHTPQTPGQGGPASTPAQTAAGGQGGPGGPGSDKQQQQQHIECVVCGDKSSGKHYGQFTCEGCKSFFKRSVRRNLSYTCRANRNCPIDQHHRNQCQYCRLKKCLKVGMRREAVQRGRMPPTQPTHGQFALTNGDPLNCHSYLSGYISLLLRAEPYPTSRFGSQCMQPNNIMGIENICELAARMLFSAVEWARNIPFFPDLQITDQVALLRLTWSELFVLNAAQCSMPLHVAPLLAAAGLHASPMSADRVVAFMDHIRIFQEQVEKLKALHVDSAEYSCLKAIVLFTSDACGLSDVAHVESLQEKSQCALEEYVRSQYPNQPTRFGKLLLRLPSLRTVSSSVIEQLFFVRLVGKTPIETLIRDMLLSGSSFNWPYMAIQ

## Cc1ccccc1N=C(NOCc1ccc(Cl)cc1Cl)c1nonc1N
[1]
  IC50: 13.3 µM (inactive)
[2]
  AC50: 3.53 µM (active)

## COC(=O)[C@]12C[C@H](CC(=O)NCCCCc3ccccc3)C(=O)N(Cc3cccc4ccccc34)C1=C[C@H](C(C)C)O[C@@H]2C1CC1
[3]
  IC50: > 69.5 µM (inactive)
[4]
  IC50: > 7.72 µM (active)

## O=[N+]([O-])c1ccc(-c2ccccc2)c([As](=O)(O)O)c1
[5]
  IC50: > 59.6 µM (inactive)
[6]
  IC50: > 59.6 µM (inactive)
[7]
  IC50: > 59.6 µM (inactive)

## Cc1ccccc1NC(=NOCc1ccc(Cl)cc1Cl)c1nonc1N
[8]
  IC50: > 69.5 µM (inactive)

## O=S(=O)(Nc1nccs1)c1ccc(Nc2nnc(-c3ccccc3)c3ccccc23)cc1
[9]
  IC50: 29.2 µM (active)
[10]
  EC50: 3.67 µM (active)
[11]
  IC50: 5.9 µM (active)
[12]
  EC50: 1.06 µM (active)

## COc1cccc(C(=O)NNC(=O)C(=O)Nc2ccc(C)c(Cl)c2)c1
[1]
  IC50: 8.71 µM (active)
[8]
  IC50: > 69.5 µM (inactive)

## O=C(/C=C/c1ccc([N+](=O)[O-])cc1)c1ccccc(=O)c1O
[13]
  AC50: 1.54 µM (active)
[1]
  IC50: 8.35 µM (active)
[14]
  CC50: 1.87 µM (active)
[8]
  IC50: 11.8 µM (inactive)
[15]
  IC50: 9.51 µM (active)
